Assay results taken from US11518758B2, “Heteroarylaminopyrimidine amide autophagy inhibitors and methods of use thereof” (Deciphera Pharmaceuticals, LLC, priority 2019, dated 2022).

Assays:
[1] = tested on: phospho-Serine 318 ATG13 (pATG13) in HCT-116 cells; assay: pATG13 levels of mutant KRas HCT-116 cells after treatment with ULK inhibitors in combination with trametinib (ELISA); type: cell-based, human
Protocol: Example 179. pATG13 Levels of Mutant KRas HCT-116 Cells after Treatment with ULK Inhibitors in Combination with Trametinib
HCT-116 human colon cancer cells (10000 cells/well) were added to a 384-well tissue-culture treated plate in 50 μL of pre-warmed DMEM medium supplemented with 10% characterized fetal bovine serum (Invitrogen, Carlsbad, Calif.), 100 units/mL penicillin G, and 100 μg/mL streptomycin and allowed to grow overnight at 37° C., 5% CO2, and 95% humidity. The following day, 10 μL of media containing trametinib or DMSO as a control was added to wells. The final concentration of trametinib in wells was 250 nM. A dose response of a test compound (0.6 μL per well) was added. DMSO (0.6 μL) was added to control wells. The plate was briefly shaken to mix wells and then incubated at 37° C. overnight. The next day, the media was aspirated and cells were washed with Dulbecco's Phosphate Buffered Saline (Gibco). Cells were lysed using MPER lysis buffer (Pierce, Rockford, Ill.) containing Halt Phosphatase and Protease Inhibitors (Pierce, Rockford, Ill.) and Phosphatase inhibitor cocktail 2 (Sigma, St. Louis, Mo.) at 4° C. for 10 minutes with shaking.
Cellular levels of phospho-Serine 318 ATG13 (pATG13) were measured via an ELISA method. Total ATG13 Antibody (Cell Signaling Cat #13273) was used to coat the wells. The plate was incubated at 4° C. overnight and washed with ELISA wash buffer (Biolegend Cat #421601). The wells were then blocked with assay diluent (Biolegend Cat #421203) for 1 hour at room temperature. Plate wells were washed with ELISA wash buffer. Cell lysate was added to wells and incubated at room temperature for 2 hours. Plate wells were washed with ELISA wash buffer. Biotinylated pS318-ATG13 antibody (Rockland Immunochemicals Cat #600-401-C49) was diluted in assay diluent and added to each well and incubated at room temperature for 1 hour. Plate wells were washed with ELISA wash buffer. Streptavidin linked to horseradish peroxidase (Thermo Fisher Cat #21140) was diluted in assay diluent and added to each well and incubated at room temperature for 1 hour. Plate wells were washed with ELISA wash buffer. High sensitivity TMB substrate (Biolegend Cat #421101) was added to each well and incubated at room temperature for 20 minutes. The reaction was stopped with 2N Sulfuric Acid. The plate was analyzed at on a plate reader measuring absorbance at 450 nm and 540 nm (background). Signal was calculated by first subtracting the background absorbance at 540 nm from the absorbance at 450 nm for each well. Next, the background corrected absorbance at 450 nm from blank wells was subtracted from test wells. Data was compared to control wells to determine % ATG13 phosphorylation. GraphPad Prism was used to calculate IC50 values.

[2] = tested on: phospho-Serine 318 ATG13 (pATG13), ULK kinase substrate, in A549 (KRAS mutant) cells; assay: pATG13 levels of mutant KRas A549 cells after treatment with ULK inhibitors in combination with trametinib (ELISA); type: cell-based, human; conditions: with 250 nM trametinib
How it was run: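 A549 cells grown overnight were treated overnight at 37 °C with a dose response of test compound plus 250 nM trametinib (final) or DMSO. Lysates were assayed by sandwich ELISA, with total ATG13 capture and biotinylated pS318-ATG13 detection read at 450 nm minus 540 nm, giving % phosphorylation against control and IC50.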

[3] = biological target: T1, ULK1 kinase (Homo sapiens, UniProt O75385); assay: Biochemical assay for ULK1.2 (coupled pyruvate kinase/lactate dehydrogenase assay); conditions: 19 nM ULK1 (Eurofins), myelin basic protein, 1 mM ATP
T1 construct: purchased Eurofins 14-959
T1 sequence (O75385 with tags, fused parts or gaps): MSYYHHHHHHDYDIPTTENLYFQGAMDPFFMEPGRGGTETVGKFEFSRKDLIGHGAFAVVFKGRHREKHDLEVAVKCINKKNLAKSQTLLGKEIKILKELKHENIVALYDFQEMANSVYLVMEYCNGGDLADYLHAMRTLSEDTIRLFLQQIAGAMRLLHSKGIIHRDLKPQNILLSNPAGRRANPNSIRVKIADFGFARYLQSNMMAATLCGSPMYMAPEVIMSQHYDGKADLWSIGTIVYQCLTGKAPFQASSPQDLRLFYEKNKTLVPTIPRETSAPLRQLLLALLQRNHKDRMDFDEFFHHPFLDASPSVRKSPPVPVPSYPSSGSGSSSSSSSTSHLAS
How it was run: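 NADH-coupled PK/LDH read-out at 340 nm, run with 19 nM ULK1, 0.25 mg/mL myelin basic protein and 1 mM ATP. Buffer was 100 mM Tris pH 7.5 with 15 mM MgCl2 and 1% DMSO final. Monitoring was continuous for 6 hours at 30° C; rates from the 2-3 h window were converted to percent inhibition and fitted to a four-parameter curve for IC50.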

| IC50 [1] | IC50 [2] | IC50 [3] | SMILES |
| --- | --- | --- | --- |
| 100 to 300 nM | 300 to 600 nM | 25 to 100 nM | Cc1nn(C2CCN(C(C)C)CC2)cc1Nc1ncc(C(F)(F)F)c(NCCCN2CCOCCC2=O)n1 [Example 131] |
| – | 100 to 300 nM | 25 to 100 nM | CCN1CC[C@H](n2cc(Nc3ncc(Br)c(NCCCN4CCCCC4=O)n3)c(C)n2)C1 [Example 64] |
| 10 to 100 nM | 100 to 300 nM | 1 to 25 nM | Cc1nn(C2CCN(C)CC2)cc1Nc1ncc(C(F)(F)F)c(NCCCN2CCCOCC2=O)n1 [Example 102] |
| – | 100 to 300 nM | 1 to 25 nM | Cc1nn([C@@H]2CCN(C)C2)cc1Nc1ncc(C(F)(F)F)c(NCCCN2CCCCC2=O)n1 [Example 18] |
| 100 to 300 nM | 100 to 300 nM | 1 to 25 nM | Cc1nn(C2CCN(C)CC2)cc1Nc1ncc(C(F)(F)F)c(NCCCN2CCOCCC2=O)n1 [Example 127] |
| 10 to 100 nM | 100 to 300 nM | 25 to 100 nM | Cc1nn([C@H]2CCN(C)C2)cc1Nc1ncc(Br)c(NCCCN2CCCCC2=O)n1 [Example 61] |
| – | 10 to 100 nM | 1 to 25 nM | Cc1nn(C2CCN(C)CC2)cc1Nc1ncc(C(F)(F)F)c(NCCCN2CCCCC2=O)n1 [Example 8] |
| 100 to 300 nM | 300 to 600 nM | 25 to 100 nM | Cc1nn(CCN(C)C)cc1Nc1ncc(C(F)(F)F)c(NCCCN2CCCCC2=O)n1 [Example 21] |
| 10 to 100 nM | 100 to 300 nM | 25 to 100 nM | CCN1CCC(n2cc(Nc3ncc(C(F)(F)F)c(NCCCN4CCCOCC4=O)n3)c(C)n2)CC1 [Example 107] |
| 100 to 300 nM | 10 to 100 nM | 1 to 25 nM | CC(C)N1CCC(n2cc(Nc3ncc(C(F)(F)F)c(NCCCN4CCCCC4=O)n3)cn2)CC1 [Example 6] |
| 10 to 100 nM | 10 to 100 nM | 25 to 100 nM | Cc1nn(C2CCN(C(C)C)CC2)cc1Nc1ncc(C(F)(F)F)c(NCCCN2CCCCC2=O)n1 [Example 15] |
| 10 to 100 nM | 100 to 300 nM | 25 to 100 nM | CCN1CCC(n2cc(Nc3ncc(C(F)(F)F)c(NCCCN4CCOCCC4=O)n3)c(C)n2)CC1 [Example 130] |
| 10 to 100 nM | 100 to 300 nM | 25 to 100 nM | Cc1nn([C@@H]2CCN(C)C2)cc1Nc1ncc(C(F)(F)F)c(NCCCN2CCCOCC2=O)n1 [Example 106] |
| 100 to 300 nM | 300 to 600 nM | 25 to 100 nM | Cc1nn(C2CCN(C(C)C)CC2)cc1Nc1ncc(C(F)(F)F)c(NCCCN2CCCOCC2=O)n1 [Example 108] |
| 10 to 100 nM | 300 to 600 nM | 25 to 100 nM | Cc1nn(C2CCN(C(C)C)CC2)cc1Nc1ncc(C(F)(F)F)c(NCCCN2CCCOC2=O)n1 [Example 68] |
| 10 to 100 nM | 100 to 300 nM | 25 to 100 nM | CCc1nn(C2CCN(C)CC2)cc1Nc1ncc(Br)c(NCCCN2CCCCC2=O)n1 [Example 53] |
| 100 to 300 nM | > 600 nM | 25 to 100 nM | Cc1nn(C2CCN(C)CC2)cc1Nc1ncc(Cl)c(NCCCN2CCCOCC2=O)n1 [Example 105] |
| 100 to 300 nM | 100 to 300 nM | 25 to 100 nM | Cc1nn(CCCN2CCOCC2)cc1Nc1ncc(C(F)(F)F)c(NCCCN2CCCCCC2=O)n1 [Example 100] |
| 10 to 100 nM | 10 to 100 nM | 1 to 25 nM | Cc1nn(C2CCN(C)CC2)cc1Nc1ncc(C(F)(F)F)c(NCCCN2CCCCCC2=O)n1 [Example 79] |
| 10 to 100 nM | 100 to 300 nM | 25 to 100 nM | CN(C)CCn1cc(Nc2ncc(C(F)(F)F)c(NCCCN3CCCCC3=O)n2)cn1 [Example 32] |
